One may read the AC50 as the concentration giving half of the maximal activity seen. Broadly, the IC50 is the concentration that gives 50% inhibition. For orientation: EC50 means the concentration needed to bring the measured effect to its halfway point.

The structures appear in SMILES notation. Activity calls are given as the source filed them.

In one assay the target is Cytochrome P450 3A4 (Homo sapiens, UniProt P08684). The conditions noted are these: Potency.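 Note: confirmatory qHTS run detecting inhibitors and substrates of CYP3A4.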
Sequence of Cytochrome P450 3A4 (P08684 whole entry): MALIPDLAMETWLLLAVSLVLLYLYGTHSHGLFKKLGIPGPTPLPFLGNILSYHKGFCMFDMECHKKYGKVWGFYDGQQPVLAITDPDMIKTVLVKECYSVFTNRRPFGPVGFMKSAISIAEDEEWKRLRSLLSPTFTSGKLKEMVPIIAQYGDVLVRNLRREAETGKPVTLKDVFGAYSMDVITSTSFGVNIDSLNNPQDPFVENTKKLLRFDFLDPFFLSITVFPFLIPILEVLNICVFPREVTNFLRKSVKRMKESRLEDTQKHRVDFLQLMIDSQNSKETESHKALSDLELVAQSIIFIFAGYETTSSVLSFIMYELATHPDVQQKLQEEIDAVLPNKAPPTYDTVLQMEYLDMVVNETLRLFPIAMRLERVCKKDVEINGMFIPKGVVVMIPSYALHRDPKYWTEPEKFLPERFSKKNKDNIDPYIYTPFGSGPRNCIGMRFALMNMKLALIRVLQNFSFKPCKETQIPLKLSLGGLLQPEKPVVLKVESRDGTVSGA
The target in another assay is Protein Rev (Human immunodeficiency virus type 1 group M subtype B (isolate WMJ22)(HIV-1), UniProt P05866). The experiment in a line: inhibitors of Rev protein–RRE RNA complex – biochemical, protein-RNA interaction, dose response (AID 842). Details: species or system Human immunodeficiency virus 1.
Sequence of Protein Rev (P05866 whole entry): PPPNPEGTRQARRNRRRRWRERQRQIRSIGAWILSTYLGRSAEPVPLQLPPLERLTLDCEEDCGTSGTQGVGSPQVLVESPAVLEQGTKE
Assay [1] has as its target T1, Bcl-2-related protein A1 (Mus musculus, UniProt Q07440).
T1 sequence (Q07440 whole entry): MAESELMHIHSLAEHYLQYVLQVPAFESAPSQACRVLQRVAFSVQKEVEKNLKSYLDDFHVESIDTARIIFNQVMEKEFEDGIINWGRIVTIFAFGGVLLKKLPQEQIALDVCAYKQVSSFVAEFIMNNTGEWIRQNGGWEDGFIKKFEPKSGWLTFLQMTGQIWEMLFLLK
The experiment in a line: displacement of Bid BH3 peptide from Bfl-1 – biochemical, fluorescence polarization, FITC-Bid, mouse, primary screen (AID 432). For orientation: Polarisation of emitted light reports the rotation of a fluorescent probe.

Assay [2] concerns the target T1, Bcl-2-related protein A1. The experiment in a line: small-molecule antagonists of Bfl-1/BH3 interaction – biochemical, TR-FRET, mouse Bfl-1, confirmation (AID 621).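 Note: TR-FRET binding of GST-Bfl-1 to FITC-labelled Bid peptide via terbium antibody.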
Assay [3] addresses T2, Calpain-2 catalytic subunit (Sus scrofa, UniProt P43367).
T2 sequence (P43367 whole entry): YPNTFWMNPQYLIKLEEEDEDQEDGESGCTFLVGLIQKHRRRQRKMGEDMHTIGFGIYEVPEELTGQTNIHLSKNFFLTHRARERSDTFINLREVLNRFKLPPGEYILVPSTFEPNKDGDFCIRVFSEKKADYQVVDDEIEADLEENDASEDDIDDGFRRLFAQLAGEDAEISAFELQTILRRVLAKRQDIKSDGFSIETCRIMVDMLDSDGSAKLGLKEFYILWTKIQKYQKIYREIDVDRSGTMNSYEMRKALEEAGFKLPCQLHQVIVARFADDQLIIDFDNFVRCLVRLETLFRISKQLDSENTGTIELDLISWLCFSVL
In words: m-calpain protease blockers, concentration series – biochemical, fluorogenic peptide substrate, dose response (AID 1420). The assay is classed as functional.

A further assay concerns the target T3, Bcl-2-like protein 10 (Homo sapiens, UniProt Q9HD36).
T3 sequence (Q9HD36 whole entry): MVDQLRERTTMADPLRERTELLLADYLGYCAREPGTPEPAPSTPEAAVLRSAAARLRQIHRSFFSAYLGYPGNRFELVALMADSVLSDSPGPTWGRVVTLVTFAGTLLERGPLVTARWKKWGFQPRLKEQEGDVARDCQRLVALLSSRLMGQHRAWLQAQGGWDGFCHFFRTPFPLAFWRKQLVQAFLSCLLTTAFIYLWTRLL
The experiment in a line: Concentration-response of Bcl-B inhibitors by biochemical FP with TR3 (AID 1243). It is filed as functional.

In assay [4] the target is T4, Intestinal-type alkaline phosphatase (Homo sapiens, UniProt P09923). In words: inhibition of human intestinal alkaline phosphatase – biochemical, luminescent, uHTS hits, set 2, dose response (AID 488793). It is filed as functional.
T4 sequence (P09923 whole entry): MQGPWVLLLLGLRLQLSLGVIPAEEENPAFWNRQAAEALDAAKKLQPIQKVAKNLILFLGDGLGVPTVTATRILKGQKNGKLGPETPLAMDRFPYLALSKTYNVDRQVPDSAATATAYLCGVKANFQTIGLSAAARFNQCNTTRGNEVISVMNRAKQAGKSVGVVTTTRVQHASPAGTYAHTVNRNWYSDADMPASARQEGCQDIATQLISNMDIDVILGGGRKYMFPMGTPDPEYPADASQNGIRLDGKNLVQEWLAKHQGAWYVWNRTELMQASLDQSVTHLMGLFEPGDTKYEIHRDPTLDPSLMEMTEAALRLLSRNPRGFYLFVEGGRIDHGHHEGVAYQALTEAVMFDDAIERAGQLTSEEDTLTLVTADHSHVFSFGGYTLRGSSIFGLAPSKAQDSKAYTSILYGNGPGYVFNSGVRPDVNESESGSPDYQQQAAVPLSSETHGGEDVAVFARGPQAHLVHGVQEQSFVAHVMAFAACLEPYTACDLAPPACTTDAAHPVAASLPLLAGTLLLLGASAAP
Assay [5] has as its target T4, Intestinal-type alkaline phosphatase. In words: Dose Response confirmation of uHTS hits from a small molecule inhibitors of human intestinal alkaline phosphatase via a luminescent assay. [Related pubchem assays (depositor defined):AID2544, AID2574]. The assay is classed as functional.
For the next assay, the target named is Large T antigen (Simian virus 40, UniProt P03070). The assay is classed as functional, Betapolyomavirus macacae.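 Note: Confirmatory-stage PubChem screen for compounds that inhibit SV40 T antigen.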
Assay [6] concerns the target T5, Alkaline phosphatase, tissue-nonspecific isozyme (Homo sapiens, UniProt P05186).
T5 sequence (P05186 whole entry): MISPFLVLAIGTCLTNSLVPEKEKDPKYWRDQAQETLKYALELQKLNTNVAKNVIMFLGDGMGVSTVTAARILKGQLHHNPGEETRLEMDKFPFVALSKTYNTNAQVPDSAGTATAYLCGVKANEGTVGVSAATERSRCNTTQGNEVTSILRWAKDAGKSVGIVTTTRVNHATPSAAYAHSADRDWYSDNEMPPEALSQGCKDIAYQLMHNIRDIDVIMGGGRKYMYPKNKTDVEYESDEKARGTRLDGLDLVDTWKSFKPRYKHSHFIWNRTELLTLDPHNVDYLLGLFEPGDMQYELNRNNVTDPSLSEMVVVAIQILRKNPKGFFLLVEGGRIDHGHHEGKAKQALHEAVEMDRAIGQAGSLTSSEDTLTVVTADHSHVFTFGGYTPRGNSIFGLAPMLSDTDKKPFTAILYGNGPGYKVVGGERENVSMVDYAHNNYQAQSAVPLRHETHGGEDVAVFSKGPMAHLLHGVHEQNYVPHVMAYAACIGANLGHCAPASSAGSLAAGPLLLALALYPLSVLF
The experiment in a line: activation of tissue-nonspecific alkaline phosphatase – biochemical, TNAP isozyme, human IAP uHTS hits, selectivity assay for human IAP activator project, dose response (AID 488886).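 Note: potency of compounds raising TNAP activity as a selectivity check on IAP activators.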 It is filed as functional.

For assay [7], the target named is Intestinal-type alkaline phosphatase (Mus musculus, UniProt P24822). In words: PubChem AID 488874. The assay is classed as functional.
In assay [8] the target is Peroxisome proliferator-activated receptor gamma/Nuclear receptor corepressor 2 (Homo sapiens, UniProt P37231+Q9Y618). The assay is classed as functional.
For assay [9], the target named is Photoreceptor-specific nuclear receptor (Homo sapiens, UniProt Q9Y5X4). The assay is classed as functional.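 Note: potency for compounds that break the NR2E3 corepressor complex and count as activators.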
Assay [10] in a line: antiviral protection against BTV-induced cell death – arbovirus, BSR cells, confirmation (AID 1250).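 Note: protection from viral cytopathic effect measured as cell viability by ATP luminescence.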 It is filed as functional.
The next assay concerns HT-1080. The experiment in a line: HT1080 cell viability loss – fluorescence readout (AID 620). The conditions noted are these: Homo sapiens. It is filed as functional, cell-based.
Another assay has as its system HEK293. The experiment in a line: EBV LMP1 TES2 canonical NF-kB signalling blockers – cell-based, HEK293, luciferase, cherry-pick, dose response (AID 588343). It is filed as functional. The conditions noted are these: Homo sapiens.
Assay [11] addresses Luciferin 4-monooxygenase (Photinus pyralis, UniProt P08659). The experiment in a line: Counter Screen for Luciferase-based Assay Positives. [Related pubchem assays: 620, 618, 411 ].
Assay [12] concerns the target Transitional endoplasmic reticulum ATPase (Homo sapiens, UniProt P55072). In words: p97 ATPase inhibitors, dose response, biochemical (AID 1534).
Assay [13] concerns the target Transitional endoplasmic reticulum ATPase (Homo sapiens, UniProt P55072, C522A). The experiment in a line: C522A mutant p97 ATPase inhibitors, dose response, counter-screen for p97 inhibitor project, biochemical, luminescence (AID 1544). In general terms: The purpose of a counterscreen is to sort out artefacts and off-target activity.
A short description of assay [14]: A cytotoxicity screen of small molecule inhibitors of the PhoP region in Salmonella typhi identified in the primary screen. [Related pubchem assays: 1850, 1864, 1985 ]. The assay is classed as functional.
The next assay concerns Vero. In words: cells. It is filed as functional, cell-based. The conditions noted are these: Chlorocebus sabaeus.
The target in the next assay is Mucolipin-3 (Homo sapiens, UniProt Q8TDD5). The experiment in a line: Dose response cell-based high-throughput screening assay for agonists of the transient receptor potential channel ML3 (TRPML3). [Related pubchem assays: 1526, 1424, 1448 ]. The assay is classed as functional.
Sequence of Mucolipin-3 (Q8TDD5 whole entry): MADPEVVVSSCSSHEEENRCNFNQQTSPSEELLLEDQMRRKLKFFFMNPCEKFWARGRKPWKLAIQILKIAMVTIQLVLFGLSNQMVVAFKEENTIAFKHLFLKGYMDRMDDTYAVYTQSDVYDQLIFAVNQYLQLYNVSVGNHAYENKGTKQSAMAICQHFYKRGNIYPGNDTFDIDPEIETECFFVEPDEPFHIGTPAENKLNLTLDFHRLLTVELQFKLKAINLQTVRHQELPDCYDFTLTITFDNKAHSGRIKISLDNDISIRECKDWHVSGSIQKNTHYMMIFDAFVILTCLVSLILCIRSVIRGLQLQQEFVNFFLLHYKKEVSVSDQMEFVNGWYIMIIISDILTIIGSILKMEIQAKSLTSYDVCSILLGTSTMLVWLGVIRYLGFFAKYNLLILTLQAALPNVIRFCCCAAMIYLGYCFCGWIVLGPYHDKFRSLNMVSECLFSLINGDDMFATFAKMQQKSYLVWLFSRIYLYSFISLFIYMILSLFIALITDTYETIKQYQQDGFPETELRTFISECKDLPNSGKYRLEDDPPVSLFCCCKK
The target in the next assay is Ion channel NompC (Danio rerio, UniProt Q7T1G6). The experiment in a line: Fluorescence counterscreen assay for TRPML3 agonists: dose response cell-based high-throughput screening assay to identify agonists of the transient receptor potential channel N1 (TRPN1). [Related pubchem assays: 1526, 1424, 1448 ]. It is filed as functional.
The nature of assay [15]: Luminescence Cell-Based Dose Response HTS to Identify Inhibitors of 5'UTR Stem-Loop Driven Prion Protein mRNA Translation in H4 Neuroglioblastoma Cells. [Related pubchem assays: 1827 (Project Summary), 1813 (Primary HTS)]. The assay is classed as functional.
Assay [16] in a line: luciferase reporter signal suppression in cells – H4 neuroglioma cells, luminescence, dose response (AID 1990). The assay is classed as functional, cell-based.
Assay [17] in a line: alpha-synuclein stem-loop luciferase translation blockers – H4 neuroglioma cells, luminescence, confirmation (AID 1988). It is filed as functional, cell-based.
The test system of assay [18] is Streptococcus sp. 'group A'. The experiment in a line: Streptococcus pyogenes SK(-)GAS viability under kanamycin – luminescence, BacTiterGlo, confirmation, counter-screen for streptokinase expression inhibitor project, dose response (AID 1900). The assay is classed as functional, organism-based. The conditions noted are these: read-out: EC50.
The next assay deals with T6, Streptokinase A (Streptococcus pyogenes serotype M1, UniProt P10520).
T6 sequence (P10520 whole entry): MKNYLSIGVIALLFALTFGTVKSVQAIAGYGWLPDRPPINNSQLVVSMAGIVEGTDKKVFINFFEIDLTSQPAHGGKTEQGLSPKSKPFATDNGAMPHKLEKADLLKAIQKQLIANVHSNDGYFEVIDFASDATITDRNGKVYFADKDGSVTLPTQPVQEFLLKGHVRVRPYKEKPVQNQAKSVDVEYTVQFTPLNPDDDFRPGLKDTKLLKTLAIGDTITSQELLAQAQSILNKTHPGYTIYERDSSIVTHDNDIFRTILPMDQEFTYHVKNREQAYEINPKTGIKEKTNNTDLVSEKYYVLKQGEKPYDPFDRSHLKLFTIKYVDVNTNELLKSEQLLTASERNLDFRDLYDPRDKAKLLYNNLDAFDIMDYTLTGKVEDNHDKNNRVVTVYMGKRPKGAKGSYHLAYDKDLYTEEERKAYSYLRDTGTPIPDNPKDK
In words: viability-normalized secreted streptokinase activity reduction – plasminogen activation absorbance, OD405, dose response (AID 1914).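 Note: secreted streptokinase activity via plasminogen activation per viability signal from cell pellet.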 The assay is classed as functional, Streptococcus pyogenes M1 GAS.

Assay [19] relates to Streptococcus. The experiment in a line: Luminescence Microorganism-Based Dose Response Follow up to Identify Compounds Cytotoxic to Streptococcus. [Related pubchem assays: 1677 (Project Summary), 1915, 1914, 1902 (Retest at Dose), 1900 (Counter Screen), 1662 (Primary HTS)]. It is filed as functional, organism-based.
Assay [20] concerns Streptococcus. In words: GAS UMAA2166 growth inhibition – luminescence, BacTiterGlo, counter-screen for streptokinase expression inhibitor project, dose response (AID 1915).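 Note: potency for reduction of bacterial viability or growth.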 The assay is classed as functional, organism-based.
The target in assay [21] is T7, Eukaryotic translation initiation factor 2-alpha kinase 3 (Homo sapiens, UniProt Q9NZJ5). The experiment in a line: Counterscreen assay for PERK inhibitors: Dose response cell-based high throughput screening assay to measure inhibition of PERK at 6 hours. [Related pubchem assays: 1522, 1416 ]. It is filed as functional.
T7 sequence (Q9NZJ5 whole entry): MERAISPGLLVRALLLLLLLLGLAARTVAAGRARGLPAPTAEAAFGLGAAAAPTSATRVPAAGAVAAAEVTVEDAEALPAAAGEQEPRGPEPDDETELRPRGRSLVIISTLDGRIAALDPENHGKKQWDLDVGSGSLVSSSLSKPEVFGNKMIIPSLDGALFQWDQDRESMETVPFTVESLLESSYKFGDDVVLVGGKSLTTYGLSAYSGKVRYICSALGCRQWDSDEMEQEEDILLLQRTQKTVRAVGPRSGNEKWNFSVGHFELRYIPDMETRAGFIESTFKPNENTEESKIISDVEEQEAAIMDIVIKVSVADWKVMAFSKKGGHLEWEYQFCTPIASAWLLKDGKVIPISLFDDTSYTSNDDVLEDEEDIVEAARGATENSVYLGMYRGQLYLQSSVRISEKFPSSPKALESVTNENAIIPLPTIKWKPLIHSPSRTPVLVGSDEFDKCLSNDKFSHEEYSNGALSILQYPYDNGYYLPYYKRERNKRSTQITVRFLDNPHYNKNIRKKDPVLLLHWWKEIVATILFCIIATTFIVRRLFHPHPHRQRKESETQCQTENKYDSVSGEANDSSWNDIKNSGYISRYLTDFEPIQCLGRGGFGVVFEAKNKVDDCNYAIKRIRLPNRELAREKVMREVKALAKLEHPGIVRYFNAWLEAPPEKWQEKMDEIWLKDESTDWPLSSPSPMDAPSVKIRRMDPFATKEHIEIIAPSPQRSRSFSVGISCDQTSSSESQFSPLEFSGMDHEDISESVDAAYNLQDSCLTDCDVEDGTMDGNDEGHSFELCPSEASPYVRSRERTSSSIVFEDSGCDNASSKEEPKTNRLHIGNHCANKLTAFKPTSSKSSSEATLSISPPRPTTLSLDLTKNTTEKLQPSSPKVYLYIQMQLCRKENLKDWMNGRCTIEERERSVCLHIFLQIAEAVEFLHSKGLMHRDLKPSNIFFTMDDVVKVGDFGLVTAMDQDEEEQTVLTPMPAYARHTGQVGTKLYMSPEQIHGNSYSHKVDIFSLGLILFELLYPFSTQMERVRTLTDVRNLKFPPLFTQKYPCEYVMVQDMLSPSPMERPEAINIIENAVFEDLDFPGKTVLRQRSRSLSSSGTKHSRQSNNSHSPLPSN
The target of assay [22] is T7, Eukaryotic translation initiation factor 2-alpha kinase 3. In words: Dose response cell-based high-throughput screening assay to measure PERK inhibition. [Related pubchem assays: 1416 ]. The assay is classed as functional.
The nature of assay [23]: Luminescence Cell-Based Dose-Confimation HTS to Identify Inhibitors of 5'UTR Stem-Loop Driven Alpha-Synuclein mRNA Translation in H4 Neuroglioblastoma Cells. [Related pubchem assays: 1827 (Project Summary), 1813 (Primary HTS)]. The assay is classed as functional.

Sequence of Transitional endoplasmic reticulum ATPase (Homo sapiens, UniProt P55072, C522A) (P55072 2-806 C522A limits assumed): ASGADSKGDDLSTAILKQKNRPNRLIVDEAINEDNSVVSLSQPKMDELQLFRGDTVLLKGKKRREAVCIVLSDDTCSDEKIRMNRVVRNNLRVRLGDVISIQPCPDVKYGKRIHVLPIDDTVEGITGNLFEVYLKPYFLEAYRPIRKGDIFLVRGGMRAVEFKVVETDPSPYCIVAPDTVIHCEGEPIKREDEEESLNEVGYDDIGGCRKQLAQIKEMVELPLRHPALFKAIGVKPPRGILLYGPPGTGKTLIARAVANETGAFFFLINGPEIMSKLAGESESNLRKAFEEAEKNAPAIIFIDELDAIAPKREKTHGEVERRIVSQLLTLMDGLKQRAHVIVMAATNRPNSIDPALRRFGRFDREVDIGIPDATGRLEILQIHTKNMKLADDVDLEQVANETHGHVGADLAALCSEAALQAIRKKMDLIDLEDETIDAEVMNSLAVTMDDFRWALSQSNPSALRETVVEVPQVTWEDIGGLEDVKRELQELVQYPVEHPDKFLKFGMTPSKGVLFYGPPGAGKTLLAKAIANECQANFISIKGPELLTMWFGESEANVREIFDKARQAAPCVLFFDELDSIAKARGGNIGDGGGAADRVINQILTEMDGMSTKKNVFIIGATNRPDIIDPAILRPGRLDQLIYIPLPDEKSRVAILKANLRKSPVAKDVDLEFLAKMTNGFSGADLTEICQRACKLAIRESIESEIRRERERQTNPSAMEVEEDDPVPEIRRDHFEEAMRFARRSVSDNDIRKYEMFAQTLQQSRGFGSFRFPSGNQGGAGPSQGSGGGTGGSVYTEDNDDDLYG
Sequence of Transitional endoplasmic reticulum ATPase (Homo sapiens, UniProt P55072) (P55072 whole entry): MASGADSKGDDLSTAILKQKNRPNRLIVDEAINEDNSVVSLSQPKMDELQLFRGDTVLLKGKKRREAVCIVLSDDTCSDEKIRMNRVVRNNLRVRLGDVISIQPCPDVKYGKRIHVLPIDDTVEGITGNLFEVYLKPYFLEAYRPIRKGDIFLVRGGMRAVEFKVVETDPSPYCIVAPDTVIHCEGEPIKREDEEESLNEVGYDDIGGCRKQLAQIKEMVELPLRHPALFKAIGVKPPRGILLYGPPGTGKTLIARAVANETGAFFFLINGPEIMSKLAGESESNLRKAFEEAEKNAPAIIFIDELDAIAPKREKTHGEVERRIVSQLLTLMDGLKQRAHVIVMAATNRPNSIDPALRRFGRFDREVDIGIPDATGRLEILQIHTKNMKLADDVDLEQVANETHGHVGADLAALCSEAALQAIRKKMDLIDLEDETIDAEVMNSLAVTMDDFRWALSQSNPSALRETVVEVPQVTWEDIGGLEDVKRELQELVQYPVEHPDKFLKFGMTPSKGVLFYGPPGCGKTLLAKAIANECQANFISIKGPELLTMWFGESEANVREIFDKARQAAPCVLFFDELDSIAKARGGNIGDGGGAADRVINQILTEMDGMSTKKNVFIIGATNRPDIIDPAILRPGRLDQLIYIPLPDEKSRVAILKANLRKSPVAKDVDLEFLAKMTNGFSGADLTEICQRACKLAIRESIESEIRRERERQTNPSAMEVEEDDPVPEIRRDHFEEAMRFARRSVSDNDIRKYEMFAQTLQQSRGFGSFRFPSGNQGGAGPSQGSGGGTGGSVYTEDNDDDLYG
Sequence of Luciferin 4-monooxygenase (P08659 whole entry): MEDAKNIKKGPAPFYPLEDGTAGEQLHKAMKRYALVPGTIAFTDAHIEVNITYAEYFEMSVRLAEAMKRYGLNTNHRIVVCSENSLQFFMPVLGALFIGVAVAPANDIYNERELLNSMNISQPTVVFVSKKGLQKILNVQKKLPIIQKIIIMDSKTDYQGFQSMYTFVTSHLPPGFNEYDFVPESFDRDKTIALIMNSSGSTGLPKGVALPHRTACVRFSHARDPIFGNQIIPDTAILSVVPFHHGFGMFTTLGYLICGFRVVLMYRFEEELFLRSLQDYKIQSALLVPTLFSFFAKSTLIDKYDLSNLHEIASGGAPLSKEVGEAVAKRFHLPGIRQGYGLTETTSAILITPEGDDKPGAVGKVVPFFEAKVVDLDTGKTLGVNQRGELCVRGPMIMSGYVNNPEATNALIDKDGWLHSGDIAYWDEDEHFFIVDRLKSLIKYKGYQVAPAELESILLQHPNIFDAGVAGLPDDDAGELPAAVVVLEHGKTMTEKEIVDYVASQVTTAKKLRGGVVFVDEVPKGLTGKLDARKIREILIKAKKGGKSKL

Regarding `COCCN(CCOC)c1nc(C)nc2c1nc(-c1ccccc1)n2CCN(C)C`, on Cytochrome P450 3A4, the AC50 was 15.8 µM (inconclusive).

With `COc1cccc(OC)c1-c1nn2c(-c3cc(-c4ccccc4)n[nH]3)nnc2s1`, the IC50 against Protein Rev is > 79.4 µM (not active); at Bcl-2-related protein A1 [1], 14.1 µM (active); against Bcl-2-related protein A1 [2], > 100 µM (not active); in assay [3] it was > 50 µM (not active).

For the compound `Cc1ccc(C)n1-c1ccc(Br)cc1C(=O)O`, at Bcl-2-like protein 10, the EC50 was 3.51 µM (active).

`O=c1c2cc(O)c(O)cc2oc2cc(O)c(C3OC(CO)C(O)C(O)C3O)c(O)c12` (centres undefined): the IC50 in assay [4] is 0.262 µM (active); in [5], 1.19 µM (active); at Large T antigen, 8.63 µM (active); in [7] it was 14 µM (active); in [8], > 39.8 µM (not active); in [9], > 39.8 µM (not active). In addition, in assay [6], the EC50 is > 100 µM (inactive).

Regarding `COc1ccc(OC)c(N(CC(=O)N2CCN(c3cc(Cl)ccc3C)CC2)S(C)(=O)=O)c1`, the IC50 was 38.9 µM (active) in [10] and 11.7 µM (not active) in assay [3].

With `CC(=O)c1sc(NC(=O)C2COc3ccccc3O2)nc1C` (centres undefined), the results for the EC50 (in the assay on HT-1080; in [11]) were > 50 µM (not active) and 3.97 µM (active), respectively. Besides, in the assay on HEK293, the AC50 is 2.85 µM (active).

On to `[O-][n+]1onc2c1CCc1[nH]c(-c3ccccc3)nc1-2`, for which the results for the IC50 (in assay [12]; in assay [13]; in the assay on Vero) were > 50 µM (not active), > 50 µM (not active) and 14 µM (active), respectively. The EC50 in [14] is > 50 µM (active).

With `COc1ccc(S(=O)(=O)N2CCC(C)CC2)cc1Br`, the EC50 on Mucolipin-3 was 1.82 µM (active); on Ion channel NompC, > 29.9 µM (not active).

Take `Cc1cccc(C)c1Oc1nc(-c2ccccc2)ncc1S(=O)(=O)c1ccccc1`: the EC50 was 29.8 µM (active) in [15]; 13.2 µM (active) in assay [16]; 16.9 µM (active) in [17]; 44.1 µM (active) in assay [18]; 3.99 µM (active) at Streptokinase A; > 500 µM (not active) in the assay with Streptococcus [19]. In addition, the EC50 in the assay with Streptococcus [20] is > 150 µM (not active).

`COc1ccc(/C=C/C(=O)N[C@@H](C)C(=O)O)cc1`: the EC50 in assay [21] and in assay [22] was > 55.7 µM (not active) each time.

Turning to `CN(C)c1nc(N)nc(CSc2nnnn2-c2ccccc2)n1`, in assay [23], the EC50 is > 195 µM (not active).

These data come from ChEMBL document CHEMBL1201862, “PubChem BioAssay data set” (2004).
